PubChem BioAssay (NCI)
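Assay format: 96-well plates, 48-hour exposure. GI50 marks 50% less growth. TGI: concentration producing complete growth inhibition.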

How the values were obtained:
Test in all cases: inhibition of tumour cell growth, NCI panel, 48 h; in the data active = GI50 below about 0.43 µM; inactive = the rest
T-47D breast = test system: T-47D breast
A549 NSCLC = test system: A549 NSCLC
M14 melanoma = test system: M14 melanoma
BT-549 breast = test system: BT-549 breast
NCI/ADR-RES ovarian = test system: NCI/ADR-RES ovarian
K-562 leukemia = test system: K-562 leukemia
HCT-116 colon = test system: HCT-116 colon
NCI-H226 lung = test system: NCI-H226 lung
MDA-MB-435 = test system: MDA-MB-435
CAKI-1 renal = test system: CAKI-1 renal

ClCc1cccc(CSc2ncnc3c2ncn3Cc2cccc(CCl)c2)c1
2.83 µM: TGI (BT-549 breast)
5.12 µM: TGI (T-47D breast)
4.54 µM: TGI (NCI-H226 lung)
inactive: GI50 (T-47D breast) 2.31 µM | GI50 (A549 NSCLC) 4.54 µM | GI50 (M14 melanoma) 1.71 µM | GI50 (BT-549 breast) 1.32 µM | GI50 (NCI/ADR-RES ovarian) 2.11 µM | GI50 (K-562 leukemia) 2.71 µM | GI50 (HCT-116 colon) 1.76 µM | GI50 (NCI-H226 lung) 1.66 µM | GI50 (MDA-MB-435) 1.71 µM | GI50 (CAKI-1 renal) 1.92 µM
15 µM: TGI (K-562 leukemia)
6.83 µM: TGI (NCI/ADR-RES ovarian)
18.4 µM: TGI (A549 NSCLC)
3.31 µM: TGI (HCT-116 colon)
3.23 µM: TGI (M14 melanoma)
4.34 µM: TGI (CAKI-1 renal)
3.67 µM: TGI (MDA-MB-435)

COC(=O)/C=C\C(C#N)(C#N)N=Cc1sccc1C
29.6 µM: TGI (A549 NSCLC)
> 100 µM: TGI (K-562 leukemia)
9.84 µM: TGI (MDA-MB-435)
13.2 µM: TGI (NCI-H226 lung)
11.1 µM: TGI (BT-549 breast)
5.48 µM: TGI (M14 melanoma)
6.69 µM: TGI (HCT-116 colon)
32.7 µM: TGI (NCI/ADR-RES ovarian)
3.51 µM: TGI (CAKI-1 renal)
5.92 µM: TGI (T-47D breast)

COC(=O)[C@@H]1CC(C(CN)c2cn(C(=O)OC(C)(C)C)c3ccccc23)C(=O)N1C(=O)OC(C)(C)C (stereo not given in full)
50.7 µM: TGI (MDA-MB-435)
97.8 µM: TGI (NCI-H226 lung)
48.4 µM: TGI (K-562 leukemia)
55.8 µM: TGI (NCI/ADR-RES ovarian)
76.3 µM: TGI (CAKI-1 renal)
> 100 µM: TGI (T-47D breast) | TGI (A549 NSCLC) | TGI (M14 melanoma) | TGI (BT-549 breast) | TGI (HCT-116 colon)

COc1cc2ccc1OCc1cccc(n1)COc1ccc(cc1OC)C=NCCNCCNCCN=C2
> 100 µM: TGI (T-47D breast) | TGI (A549 NSCLC) | TGI (M14 melanoma) | TGI (BT-549 breast) | TGI (NCI/ADR-RES ovarian) | TGI (K-562 leukemia) | TGI (HCT-116 colon) | TGI (NCI-H226 lung) | TGI (MDA-MB-435) | TGI (CAKI-1 renal)

CN1C(=O)CC2CCC(=O)N2c2cccnc21 (stereo not given)
> 100 µM: TGI (T-47D breast) | TGI (A549 NSCLC) | TGI (M14 melanoma) | TGI (BT-549 breast) | TGI (NCI/ADR-RES ovarian) | TGI (K-562 leukemia) | TGI (HCT-116 colon) | TGI (NCI-H226 lung) | TGI (MDA-MB-435) | TGI (CAKI-1 renal)

O=[N+]([O-])/C(C(Cl)=C(Cl)Cl)=C(\N1CCCCC1)n1nnc2ccccc21
> 81.1 µM: TGI (NCI/ADR-RES ovarian)
33.4 µM: TGI (HCT-116 colon)
49.4 µM: TGI (BT-549 breast)
32.5 µM: TGI (M14 melanoma)
51.1 µM: TGI (A549 NSCLC)
> 55.9 µM: TGI (CAKI-1 renal)
42.6 µM: TGI (NCI-H226 lung)
22.5 µM: TGI (K-562 leukemia)
> 100 µM: TGI (T-47D breast) | TGI (MDA-MB-435)

CC(C)(C)OC(=O)Cn1ncn(NC(=O)Cc2ccccc2)c1=O
> 10 µM: TGI (T-47D breast) | TGI (A549 NSCLC) | TGI (M14 melanoma) | TGI (BT-549 breast) | TGI (NCI/ADR-RES ovarian) | TGI (K-562 leukemia) | TGI (HCT-116 colon) | TGI (NCI-H226 lung) | TGI (MDA-MB-435) | TGI (CAKI-1 renal)

CCOC(=O)c1cc(C2CCN(c3ccccc3)C2=O)c(C(=O)/C=C(/C)N)[nH]1 (stereo not given)
27.9 µM: TGI (HCT-116 colon)
80.4 µM: TGI (NCI-H226 lung)
> 100 µM: TGI (T-47D breast) | TGI (A549 NSCLC) | TGI (M14 melanoma) | TGI (BT-549 breast) | TGI (NCI/ADR-RES ovarian) | TGI (K-562 leukemia) | TGI (MDA-MB-435)
81.6 µM: TGI (CAKI-1 renal)

CC[P+]1(c2ccccc2)[C@@H](C)CC[C@@H]1C
> 100 µM: TGI (T-47D breast) | TGI (A549 NSCLC) | TGI (M14 melanoma) | TGI (BT-549 breast) | TGI (NCI/ADR-RES ovarian) | TGI (K-562 leukemia) | TGI (HCT-116 colon) | TGI (NCI-H226 lung) | TGI (MDA-MB-435) | TGI (CAKI-1 renal)

Cc1ccc(S(=O)(=O)N/N=C2/CC3CCC4CC2CC34)cc1 (stereo not given)
> 100 µM: TGI (T-47D breast) | TGI (A549 NSCLC) | TGI (M14 melanoma) | TGI (BT-549 breast) | TGI (NCI/ADR-RES ovarian) | TGI (K-562 leukemia) | TGI (HCT-116 colon) | TGI (NCI-H226 lung) | TGI (MDA-MB-435) | TGI (CAKI-1 renal)

C=CCOc1ccccc1C1(O)c2ccccc2C2=NCCCN21 (stereo not given)
> 100 µM: TGI (T-47D breast) | TGI (A549 NSCLC) | TGI (BT-549 breast) | TGI (NCI/ADR-RES ovarian) | TGI (K-562 leukemia) | TGI (HCT-116 colon) | TGI (MDA-MB-435) | TGI (CAKI-1 renal)
76.4 µM: TGI (NCI-H226 lung)
39.8 µM: TGI (M14 melanoma)

COc1ccccc1NCc1cccc2c(=O)c3ccc(Cl)cc3oc12
> 100 µM: TGI (T-47D breast) | TGI (A549 NSCLC) | TGI (M14 melanoma) | TGI (BT-549 breast) | TGI (NCI/ADR-RES ovarian) | TGI (K-562 leukemia) | TGI (HCT-116 colon) | TGI (NCI-H226 lung) | TGI (MDA-MB-435) | TGI (CAKI-1 renal)

C[N+]1(CCC[N+]2(C)CC3C4C=CC(CC4)C3C2)CCOCC1 (stereo not given)
> 100 µM: TGI (T-47D breast) | TGI (A549 NSCLC) | TGI (M14 melanoma) | TGI (BT-549 breast) | TGI (NCI/ADR-RES ovarian) | TGI (K-562 leukemia) | TGI (HCT-116 colon) | TGI (NCI-H226 lung) | TGI (MDA-MB-435) | TGI (CAKI-1 renal)

O=C(Nc1sccc1S(=O)(=O)c1ccccc1)c1ccccc1
> 100 µM: TGI (T-47D breast) | TGI (A549 NSCLC) | TGI (M14 melanoma) | TGI (BT-549 breast) | TGI (NCI/ADR-RES ovarian) | TGI (HCT-116 colon) | TGI (NCI-H226 lung) | TGI (MDA-MB-435) | TGI (CAKI-1 renal)
> 19.9 µM: TGI (K-562 leukemia)

COc1cc(NC=C2C(=O)OC(C)(C)OC2=O)c(OC)c(C)c1OC
> 100 µM: TGI (T-47D breast) | TGI (A549 NSCLC) | TGI (M14 melanoma) | TGI (BT-549 breast) | TGI (NCI/ADR-RES ovarian) | TGI (K-562 leukemia) | TGI (HCT-116 colon) | TGI (NCI-H226 lung) | TGI (MDA-MB-435) | TGI (CAKI-1 renal)
